Values joined by “and” are separate entries in the source; they are usually repeats but may differ in a detail not shown here. Equal values may be shown once.
Experiments:
[1] = FT3 in serum by ultrafiltration (UF), LC-MS/MS; details: for Concentration UF, Average: average of 10 samples; for Concentration UF: serum, individual samples No. 1-10
Procedure: (§1) In a method in this embodiment, ultrafiltration and equilibrium dialysis are performed to separate free triiodothyronine (FT3) at 20° C., 25° C., 30° C., and 37° C., respectively. In practice, another temperature value may be used. Where
Ultrafiltration: 100 μL 4-hydroxyethyl piperazine ethanesulfonic acid solution is added to a 100 μL serum, and the solution is mixed well by pipettes. Subsequently, the obtained mixture is transferred to the activated ultrafiltration tube and centrifuged at 20° C., 25° C., 30° C., and 37° C., and 2000 g for 1 h, respectively.
Internal standard precipitation: 100 μL internal standard solution is added to 100 μL ultrafiltrate, and vortexed well for 3 min. Then, centrifugation is performed at 4° C. and 12000 rpm for 10 min.
(§2) After the free T3 is separated by using ultrafiltration and equilibrium dialysis, the free T3 is detected by the following high-performance liquid chromatography tandem mass spectrometry parameters:
(§3) chromatographic column: Acquity UPLC BEH C18 (2.1×50 mm, 1.7 μm); column oven temperature: 30° C.; mobile phases: 0.1% formic acid aqueous solution (A)˜0.1% formic acid methanol (B); and gradient elution: […]
(§4) ion source: electrospray ion source in positive ion mode; spray voltage: 5500 V; ion source temperature: 550° C.; GS1: 50 psi; GS2: 50 psi; curtain gas: 30 psi; and multiple reaction monitoring: […]

[2] = FT3 in serum by equilibrium dialysis (ED), LC-MS/MS; details: for Concentration ED, Average: average of 10 samples; for Concentration ED: serum, individual samples No. 1-10
Procedure: as §1
Equilibrium dialysis: 200 μL 4-hydroxyethyl piperazine ethanesulfonic acid solution is placed on the buffer side of the equilibrium plate, 200 μL serum is placed on the sample side. Subsequently, the equilibrium dialysis plate is dialyzed at 20° C., 25° C., 30° C., and 37° C. for 22 h, respectively.
Internal standard precipitation: 100 μL internal standard solution is added to 100 μL dialysate and vortexed well for 3 min. Then, centrifugation is performed at 4° C. and 12000 rpm for 10 min.
as §2, §3, §4

[3] = FT4 in serum by ultrafiltration (UF), LC-MS/MS; type: in vitro ADME, human; details: for Concentration UF, Average: average of 10 samples; for Concentration UF: serum, individual samples No. 1-10
Text: (§5) In practice, other temperatures can also be used. […] Where

[4] = FT4 in serum by equilibrium dialysis (ED), LC-MS/MS; type: in vitro ADME, human; details: for Concentration ED, Average: average of 10 samples; for Concentration ED: serum, individual samples No. 1-10
Text: as §5

[5] = free testosterone in serum by ultrafiltration (UF), LC-MS/MS; details: for Concentration UF, Average: average of 10 samples; for Concentration UF: serum, individual samples No. 1-10
Procedure: (§6) In practice, other temperatures can also be used. Subsequently, high-performance liquid chromatography tandem mass spectrometry is used for detection, and results are shown in Table 1. Where
Ultrafiltration: 900 μL 4-hydroxyethyl piperazine ethanesulfonic acid solution is added to 300 μL serum, and the solution is mixed well by pipettes. Subsequently, the obtained mixture is transferred to the activated ultrafiltration tube and centrifuged at 20° C., 25° C., 30° C., and 37° C., and 2000 g for 1 h, respectively.
Solid-phase extraction: 20 μL internal standard solution is added to 600 μL ultrafiltrate, and vortexed well. The obtained mixture is added to an activated HLB solid-phase extraction: conditioning is performed twice by 300 μL 10% methanol aqueous solution, elution is performed twice by 300 μL 90% methanol aqueous solution, eluent is merged and blown to dry by nitrogen, and finally, the obtained product is redissolved by 100 μL 50% methanol aqueous solution.
(§7) Chromatographic column: Acquity UPLC BEH C18 (2.1×50 mm, 1.7 μm); column oven temperature: 40° C.; mobile phases: 0.1% formic acid 2 mM ammonium acetate aqueous solution (A)˜methanol (B); and gradient elution: […]
as §4

[6] = free testosterone in serum by equilibrium dialysis (ED), LC-MS/MS; details: for Concentration ED, Average: average of 10 samples; for Concentration ED: serum, individual samples No. 1-10
Procedure: as §6
Equilibrium dialysis: 200 μL 4-hydroxyethyl piperazine ethanesulfonic acid solution is placed on the buffer side of the equilibrium dialysis plate, 200 μL serum is placed on the sample side. Subsequently, the equilibrium dialysis plate is dialyzed at 20° C., 25° C., 30° C., and 37° C. for 22 h, respectively.
Solid-phase extraction: 20 μL internal standard solution is added to 200 μL dialysate, and vortexed well. The obtained mixture is added to an activated HLB solid-phase extraction: conditioning is performed twice by 300 μL 10% methanol aqueous solution, elution is performed twice by using 300 μL 90% methanol aqueous solution, eluent is merged and blown to dry by nitrogen, and finally, the obtained product is redissolved by 100 μL 50% methanol aqueous solution.
as §7, §4

## N[C@@H](Cc1cc(I)c(Oc2ccc(O)c(I)c2)c(I)c1)C(=O)O [FT3, triiodothyronine]
[1]; 20° C.
  Concentration UF, Average: 2.34 pg/mL
  Concentration UF: 2.54 pg/mL and 2.25 pg/mL and 2.36 pg/mL (2×) and 2.41 pg/mL and 2.32 pg/mL and 2.28 pg/mL and 2.17 pg/mL and 2.52 pg/mL and 2.23 pg/mL
[1]; 25° C.
  Concentration UF, Average: 2.58 pg/mL
  Concentration UF: 2.52 pg/mL and 2.62 pg/mL and 2.45 pg/mL and 2.68 pg/mL and 2.58 pg/mL and 2.46 pg/mL and 2.57 pg/mL and 2.65 pg/mL and 2.71 pg/mL and 2.53 pg/mL
[1]; 30° C.
  Concentration UF, Average: 2.73 pg/mL
  Concentration UF: 2.68 pg/mL and 2.75 pg/mL (2×) and 2.82 pg/mL and 2.66 pg/mL and 2.78 pg/mL and 2.58 pg/mL and 2.84 pg/mL and 2.72 pg/mL and 2.67 pg/mL
[1]; 37° C.
  Concentration UF, Average: 3.19 pg/mL
  Concentration UF: 3.05 pg/mL (2×) and 3.24 pg/mL and 3.13 pg/mL and 3.48 pg/mL and 3.20 pg/mL and 3.18 pg/mL and 3.27 pg/mL and 3.08 pg/mL and 3.17 pg/mL
[2]; 20° C.
  Concentration ED, Average: 2.40 pg/mL
  Concentration ED: 2.45 pg/mL and 2.62 pg/mL and 2.25 pg/mL and 2.35 pg/mL and 2.48 pg/mL and 2.36 pg/mL and 2.27 pg/mL and 2.46 pg/mL and 2.42 pg/mL and 2.31 pg/mL
[2]; 25° C.
  Concentration ED, Average: 2.61 pg/mL
  Concentration ED: 2.65 pg/mL and 2.75 pg/mL and 2.52 pg/mL and 2.61 pg/mL and 2.48 pg/mL and 2.54 pg/mL and 2.68 pg/mL and 2.70 pg/mL and 2.63 pg/mL and 2.57 pg/mL
[2]; 30° C.
  Concentration ED, Average: 2.77 pg/mL
  Concentration ED: 2.72 pg/mL and 2.65 pg/mL and 2.85 pg/mL (2×) and 2.88 pg/mL and 2.68 pg/mL and 2.76 pg/mL and 2.78 pg/mL (2×) and 2.71 pg/mL
[2]; 37° C. equilibrium dialysis 22 h, 60 different serum specimens
  2nd conc. (ED): 3.05 and 3.18 and 3.17 and 3.22 and 3.04 and 3.24 and 3.19 and 3.48
[2]; 37° C.
  Concentration ED, Average: 3.22 pg/mL
  Concentration ED: 3.13 pg/mL and 3.22 pg/mL and 3.04 pg/mL and 3.32 pg/mL and 3.15 pg/mL and 3.31 pg/mL (2×) and 3.34 pg/mL and 3.28 pg/mL and 3.12 pg/mL

## N[C@@H](Cc1cc(I)c(Oc2cc(I)c(O)c(I)c2)c(I)c1)C(=O)O [FT4, thyroxine]
[3]; 20° C.
  Concentration UF, Average: 6.85 pg/mL
  Concentration UF: 7.21 pg/mL and 6.77 pg/mL and 6.78 pg/mL (2×) and 6.40 pg/mL and 6.94 pg/mL and 6.85 pg/mL and 7.01 pg/mL and 6.90 pg/mL and 6.81 pg/mL
[3]; 25° C.
  Concentration UF, Average: 8.51 pg/mL
  Concentration UF: 7.92 pg/mL and 8.97 pg/mL and 8.74 pg/mL and 8.58 pg/mL and 8.14 pg/mL and 8.06 pg/mL and 8.57 pg/mL and 8.72 pg/mL and 8.63 pg/mL and 8.76 pg/mL
[3]; 30° C.
  Concentration UF, Average: 10.58 pg/mL
  Concentration UF: 10.73 pg/mL and 9.82 pg/mL and 10.55 pg/mL and 10.61 pg/mL and 10.97 pg/mL and 10.75 pg/mL and 10.82 pg/mL and 10.57 pg/mL and 10.33 pg/mL and 10.63 pg/mL
[3]; 37° C.
  Concentration UF, Average: 14.00 pg/mL
  Concentration UF: 13.45 pg/mL and 13.82 pg/mL and 14.14 pg/mL and 13.57 pg/mL and 14.22 pg/mL and 14.58 pg/mL and 13.74 pg/mL and 14.05 pg/mL and 14.26 pg/mL and 14.16 pg/mL
[4]; 20° C.
  Concentration ED, Average: 6.83 pg/mL
  Concentration ED: 7.05 pg/mL (2×) and 6.91 pg/mL and 6.85 pg/mL and 6.76 pg/mL and 6.71 pg/mL and 6.42 pg/mL and 6.83 pg/mL and 6.84 pg/mL and 6.90 pg/mL
[4]; 25° C.
  Concentration ED, Average: 8.53 pg/mL
  Concentration ED: 8.37 pg/mL and 8.33 pg/mL and 8.83 pg/mL and 8.05 pg/mL and 8.24 pg/mL and 8.94 pg/mL and 8.47 pg/mL and 8.69 pg/mL and 8.73 pg/mL and 8.65 pg/mL
[4]; 30° C.
  Concentration ED, Average: 10.80 pg/mL
  Concentration ED: 10.91 pg/mL and 11.07 pg/mL and 11.18 pg/mL and 10.63 pg/mL (2×) and 10.46 pg/mL and 10.98 pg/mL and 10.74 pg/mL and 10.67 pg/mL and 10.75 pg/mL
[4]; 37° C.
  Concentration ED, Average: 14.22 pg/mL
  Concentration ED: 14.17 pg/mL and 14.64 pg/mL and 13.61 pg/mL and 14.22 pg/mL and 14.67 pg/mL and 14.63 pg/mL and 13.94 pg/mL and 14.15 pg/mL and 14.11 pg/mL and 14.06 pg/mL

## C[C@]12CC[C@H]3[C@@H](CCC4=CC(=O)CC[C@@]43C)[C@@H]1CC[C@@H]2O [free testosterone, testosterone]
[5]; 20° C.
  Concentration UF, Average: 4.12 pg/mL
  Concentration UF: 4.26 pg/mL and 4.29 pg/mL and 4.01 pg/mL and 4.38 pg/mL and 3.98 pg/mL and 3.92 pg/mL and 4.15 pg/mL and 4.12 pg/mL and 3.97 pg/mL and 4.07 pg/mL
[5]; 25° C.
  Concentration UF, Average: 4.50 pg/mL
  Concentration UF: 4.37 pg/mL and 4.64 pg/mL (2×) and 4.51 pg/mL (2×) and 4.45 pg/mL and 4.39 pg/mL and 4.48 pg/mL and 4.43 pg/mL and 4.61 pg/mL
[5]; 30° C.
  Concentration UF, Average: 4.81 pg/mL
  Concentration UF: 4.69 pg/mL and 4.96 pg/mL (2×) and 4.83 pg/mL and 4.79 pg/mL and 4.58 pg/mL and 4.85 pg/mL and 4.91 pg/mL and 4.74 pg/mL and 4.77 pg/mL
[5]; 37° C.
  Concentration UF, Average: 5.16 pg/mL
  Concentration UF: 5.12 pg/mL and 5.28 pg/mL and 5.30 pg/mL and 5.04 pg/mL and 5.16 pg/mL (2×) and 5.18 pg/mL and 5.24 pg/mL and 5.03 pg/mL and 5.07 pg/mL
[6]; 20° C.
  Concentration ED, Average: 4.08 pg/mL
  Concentration ED: 4.05 pg/mL (2×) and 4.17 pg/mL and 3.94 pg/mL and 4.21 pg/mL and 3.85 pg/mL and 4.18 pg/mL and 4.01 pg/mL and 4.16 pg/mL and 4.22 pg/mL
[6]; 25° C.
  Concentration ED, Average: 4.55 pg/mL
  Concentration ED: 4.75 pg/mL and 4.61 pg/mL and 4.48 pg/mL and 4.56 pg/mL and 4.41 pg/mL and 4.62 pg/mL and 4.57 pg/mL and 4.42 pg/mL and 4.50 pg/mL and 4.54 pg/mL
[6]; 30° C.
  Concentration ED, Average: 4.93 pg/mL
  Concentration ED: 5.04 pg/mL and 5.01 pg/mL and 4.95 pg/mL and 5.02 pg/mL and 4.85 pg/mL and 4.87 pg/mL and 4.91 pg/mL and 4.98 pg/mL and 4.84 pg/mL and 4.82 pg/mL
[6]; 37° C.
  Concentration ED, Average: 5.21 pg/mL
  Concentration ED: 5.40 pg/mL and 4.95 pg/mL and 5.23 pg/mL and 5.42 pg/mL and 5.12 pg/mL and 5.32 pg/mL and 5.22 pg/mL and 5.27 pg/mL and 5.13 pg/mL and 5.07 pg/mL

Reference: US20240319211A1, “CONTENT CONVERSION METHOD OF FREE COMPONENTS BY TRANSFORMING ULTRAFILTRATION TO EQUILIBRIUM DIALYSIS” (HEFEI NOVA-MS BIOTECH MEDICAL EQUIPMENT CO., LTD, priority 2022, published 2024)
